SMILES strings stand for the structures.

We go through 23 compounds from US20260207618A1, “PYRIMIDINE CARBOXAMIDE COMPOUNDS” (Acrivon Therapeutics, Inc., priority 2022, published 2026).

For test [1], the target named is T1, recombinant human Wee1A kinase (Homo sapiens, UniProt P30291).
T1 construct: full length Wee1A kinase was expressed by baculovirus in insect cells; purchased Invitrogen PV3817; host or cells: insect cells (baculovirus)
Description: LanthaScreen Europium (Eu) Kinase Binding Assay, Wee1A kinase (TR-FRET tracer displacement). As to conditions: 30 nM tracer 178, 5 nM Wee1A kinase, 60 minutes at room temperature. In general terms: TR-FRET usually uses a lanthanide donor and a delayed reading to cut background.

Test [2] concerns Cdk1 phosphorylated on tyrosine 15. Description: pCDK1 Y15 AlphaLISA target engagement assay in ACHN cells. It counts as cell-based. The following applies: Homo sapiens, treated for 4 h, 7 to 5000 nM, read-out: TE Weel (ALISA): AlphaLISA CDK1 Tyr15 Phosphorylation EC50. As for the experimental part:
(§1) ACHN renal cell carcinoma cell line (ATCC) was cultured in Minimum Essential Medium Eagle supplemented with 10% fetal calf serum (Sigma), 1% Penicillin-Streptomycin and 10 mM HEPES buffer (HyClone). Cell cultures were kept in a humidified incubator at 37° C. and 5% CO2. Cells were routinely tested for Mycoplasma contamination.
For target engagement assessment, quantification of Cdk1 phosphorylated on tyrosine 15 was detected using pCDK1 Y^15 AlphaLISA assay (Perkin Elmer). ACHN cells were seeded into tissue culture treated 96-well plates (VWR) to a density of 20,000 cells per well. 24 h post seeding cells were treated for 4 h with compounds at concentrations ranging from 7 to 5000 nM. Cells were washed with PBS and lysed in 50 μl alphaLISA lysis buffer before freezing at −80° C. 10 μl of the lysate was transferred to 384 well plates and incubated with alphaLISA donor and acceptor beads according to the manufacturer's instructions. Dose response curves and EC50 values were calculated and visualized using GraphPad Prism version 9.

Test [3] has the same test system. Description: High-content imaging of pCdk1 Y15 by immunofluorescence in ACHN cells. It counts as cell-based. As to conditions: Homo sapiens, high-content imaging (IF), 4 h, 7 to 5000 nM, read-out: CDK1 Tyr15 Phosphorylation EC50 (IC50). In outline:
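ACHN cells were treated with compounds at 7–5000 nM for 4 h, then fixed, permeabilised and immunostained for pCDK1 Y15, with DAPI as nuclear counterstain. Automated imaging gave the percentage of cells with nuclear pCDK1 Y15 positivity relative to DMSO control. EC50 values came from dose-response curves.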

For test [4], the system named is ACHN cells. Description: Cell Titer Glo viability assay in ACHN cells. It counts as cell-based. The following applies: Homo sapiens, 144 h, 0.17 to 10,000 nM. As for the experimental part:
as §1
ACHN cells were seeded at a density of 400 cells per well in tissue culture treated 384 well plates (Corning Costar). After overnight incubation, cells were treated with drugs at concentrations ranging from 0.17 to 10,000 nM. Viability compared to untreated control was assessed at 144 h using Cell Titer Glo assay 2.0 (Promega).
(In general: ATP-based viability assays read luminescence as a measure of living cells.)

T1 sequence (P30291 whole entry): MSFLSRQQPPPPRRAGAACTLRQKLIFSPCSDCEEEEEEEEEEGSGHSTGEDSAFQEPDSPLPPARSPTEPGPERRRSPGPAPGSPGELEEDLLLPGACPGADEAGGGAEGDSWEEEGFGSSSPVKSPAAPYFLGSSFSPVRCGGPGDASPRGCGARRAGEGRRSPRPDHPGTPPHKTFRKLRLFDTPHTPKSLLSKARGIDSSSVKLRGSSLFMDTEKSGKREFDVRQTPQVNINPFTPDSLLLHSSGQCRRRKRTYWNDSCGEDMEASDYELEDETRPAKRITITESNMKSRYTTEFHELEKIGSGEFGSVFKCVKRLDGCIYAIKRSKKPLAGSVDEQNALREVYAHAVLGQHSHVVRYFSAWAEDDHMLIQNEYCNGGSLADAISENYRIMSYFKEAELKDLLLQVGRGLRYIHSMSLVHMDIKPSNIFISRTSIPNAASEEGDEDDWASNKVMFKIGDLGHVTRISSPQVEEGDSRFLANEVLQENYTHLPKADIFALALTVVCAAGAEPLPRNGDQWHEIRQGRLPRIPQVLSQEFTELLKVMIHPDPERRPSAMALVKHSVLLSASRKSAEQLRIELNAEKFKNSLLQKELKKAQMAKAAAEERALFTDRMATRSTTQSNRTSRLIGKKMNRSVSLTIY

By IC50 is commonly meant the midpoint of a concentration-inhibition curve. As usually defined, the EC50 is the concentration needed to bring the measured effect to its halfway point. Turning to `COc1nc(Nc2ccc(C3CCN(C)CC3)c(C)c2)ncc1C(=O)Nc1cc(N)ccc1C` [Compound 171], in test [1], the IC50 was 10 to 100 nM. The EC50 in test [2] is above 2500 nM.
In the case of `COc1nc(Nc2cnn(C)c2)ncc1C(=O)Nc1c(Cl)cccc1Cl` [Compound 182], the IC50 in test [1] is 10 to 100 nM. Further, the EC50 was 100 to 500 nM in test [3], above 2500 nM in test [2] and 1000 to 5000 nM in test [4].
As to `COc1nc(Nc2ccc(C3CCN(C)CC3)c(C#N)c2)ncc1C(=O)Nc1c(Cl)cccc1Cl` [Compound 156, 2-((3-cyano-4-(1-methylpiperidin-4-yl)phenyl)amino)-N-(2,6-dichlorophenyl)-4-methoxypyrimidine-5-carboxamide], in test [1], the IC50 was at most 10 nM. In test [2], the EC50 was in the range of 500 to 1000 nM.
Taken in the same sequence, the figures for `COc1nc(Nc2ccc3c(cnn3C)c2)ncc1C(=O)Nc1c(Cl)cccc1Cl` [Compound 176] were 10 to 100 nM and above 2500 nM.
Consider `COc1nc(Nc2ccc3c(cnn3C3CCN(C)C3)c2)ncc1C(=O)Nc1c(Cl)cccc1Cl` (centres unmarked) [Compound 173], for which the IC50 in test [1] fell in the range of 10 to 100 nM. Also, the EC50 in test [2] was above 2500 nM.
`COc1nc(Nc2ccc(C3(C#N)CCN(C)CC3)c(C)c2)ncc1C(=O)Nc1c(Cl)cccc1Cl` [Compound 181]: in test [1], the IC50 was at most 10 nM. In test [2], the EC50 was at most 500 nM.
For `COc1nc(Nc2ccc(OC3CCNCC3)cc2)ncc1C(=O)Nc1c(Cl)cccc1Cl` [Compound 179], the IC50 in test [1] was at most 10 nM. For the same compound, the EC50 in test [3] was 100 to 500 nM; in test [2], above 2500 nM; in test [4], 250 to 1000 nM.
For `COc1nc(Nc2ccc(C3CCN(C)CC3)c(C)c2)ncc1C(=O)Nc1c(C)ccc2[nH]ncc12` [Compound 172], the IC50 in test [1] was at most 10 nM. The EC50 is 100 to 500 nM in test [3], 500 to 1000 nM in test [2] and 250 to 1000 nM in test [4].
Regarding `COc1nc(Nc2ccc(O[C@H]3CCNC3)c(C)c2)ncc1C(=O)Nc1c(Cl)cccc1Cl` [Compound 177], in test [1], the IC50 was at most 10 nM. Moreover, the EC50 in test [2] is above 2500 nM.
Take `COc1nc(Nc2ccc(OC3CCNCC3)c(C)c2)ncc1C(=O)Nc1c(Cl)cccc1Cl` [Compound 180]: the IC50 in test [1] was at most 10 nM. The EC50 in test [3] is 100 to 500 nM; in test [2], 500 to 1000 nM; in test [4], 250 to 1000 nM.
Turning to `COc1nc(Nc2ccc(N3CCC(N(C)C)CC3)c(C)c2)ncc1C(=O)Nc1c(Cl)cccc1Br` [Compound 213], in test [1], the IC50 is at most 10 nM. The EC50 in test [3] was 100 to 500 nM; in test [4], at most 250 nM.
On the same counts, the results for `COc1nc(Nc2ccc([C@H]3CCNC3)c(C)c2)ncc1C(=O)Nc1c(Cl)cccc1Br` (single isomer, unassigned) [Compound 194] are at most 10 nM, 100 to 500 nM and 250 to 1000 nM.
Taken in the same sequence, the figures for `Cc1cc(Nc2ncc(C(=O)Nc3c(Cl)cccc3Cl)c(OC3CC3)n2)ccc1C1CCN(C)CC1` [Compound 140, 4-cyclopropoxy-N-(2,6-dichlorophenyl)-2-((3-methyl-4-(1-methylpiperidin-4-yl)phenyl)amino)pyrimidine-5-carboxamide] were at most 10 nM, 100 to 500 nM and at most 250 nM.
`COc1nc(Nc2ccc(O[C@@H]3CCNC3)c(C)c2)ncc1C(=O)Nc1c(Cl)cccc1Cl` [Compound 178]: the IC50 in test [1] was at most 10 nM. Besides, the figures for the 50% effective concentration (EC50) in test [3], in test [2] and in test [4] were at most 100 nM, 500 to 1000 nM and 250 to 1000 nM, respectively.
Regarding `COc1nc(Nc2ccc(O[C@H]3CCN(C)C3)c(C)c2)ncc1C(=O)Nc1c(Cl)ccc(O)c1C` [Compound 155, (S)—N-(6-chloro-3-hydroxy-2-methylphenyl)-4-methoxy-2-((3-methyl-4-((1-methylpyrrolidin-3-yl)oxy)phenyl)amino)pyrimidine-5-carboxamide], in test [1], the IC50 is at most 10 nM. In addition, the EC50 in test [2] was at most 500 nM.
For `COc1nc(Nc2ccc([C@@H]3CCCN(C)C3)c(C)c2)ncc1C(=O)Nc1c(Cl)cccc1Br` (single isomer, unassigned) [Compound 197], the IC50 in test [1] was at most 10 nM. Besides, the EC50 is 100 to 500 nM in test [3] and at most 250 nM in test [4].
Regarding `COc1nc(Nc2cnn(C3CCN(C)CC3)c2)ncc1C(=O)Nc1c(Br)cccc1Br` [Compound 212, N-2,6-dibromophenyl-4-methoxy-2-[1-(1-methyl-4-piperidyl)-4-pyrazolylamino]-5-pyrimidinecarboxamide], the IC50 in test [1] was at most 10 nM. The figures for the EC50 in test [3] and in test [4] were 100 to 500 nM and at most 250 nM, respectively.
`COc1nc(Nc2ccc(C3CCN(C)CC3)c(C)c2)ncc1C(=O)Nc1c(Cl)ccc(O)c1Cl` [Compound 133, N-(2,6-dichloro-3-hydroxyphenyl)-4-methoxy-2-((3-methyl-4-(1-methylpiperidin-4-yl)phenyl)amino)pyrimidine-5-carboxamide]: the IC50 in test [1] is at most 10 nM. Further, the EC50 is at most 100 nM in test [3] and at most 250 nM in test [4].
Consider `COc1nc(Nc2ccc(C3CCNCC3)c(C)c2)ncc1C(=O)Nc1c(Cl)cccc1Cl` [Compound 175], for which the IC50 in test [1] is at most 10 nM. For the same compound, the EC50 in test [3] was at most 100 nM; in test [2], at most 500 nM; in test [4], at most 250 nM.
Consider `COc1nc(Nc2ccc3c(cnn3CCN(C)C)c2)ncc1C(=O)Nc1c(Cl)cccc1Cl` [Compound 174], for which the IC50 in test [1] was at most 10 nM. The EC50 in test [2] was above 2500 nM.
For `COc1nc(Nc2ccc(C3CCN(C)CC3)c(C)c2)ncc1C(=O)Nc1c(Cl)cccc1Cl` [Compound 100, N-(2,6-dichlorophenyl)-4-methoxy-2-((3-methyl-4-(1-methylpiperidin-4-yl)phenyl)amino)pyrimidine-5-carboxamide], the IC50 in test [1] was at most 10 nM. For the same compound, the EC50 was at most 100 nM in test [3] and 250 to 1000 nM in test [4].
Take `COc1nc(Nc2cnn(C3CCN(C)CC3)c2)ncc1C(=O)Nc1c(Cl)cccc1Cl` [Compound 163]: in test [1], the IC50 is at most 10 nM. The values for the EC50 in test [3], in test [2] and in test [4] were 100 to 500 nM, above 2500 nM and 250 to 1000 nM, respectively.
As for `COc1nc(Nc2ccc(O[C@H]3CCN(C)C3)c(C)c2)ncc1C(=O)Nc1c(Cl)cccc1Cl` [Compound 154, (S)—N-(2,6-dichlorophenyl)-4-methoxy-2-((3-methyl-4-((1-methylpyrrolidin-3-yl)oxy)phenyl)amino)pyrimidine-5-carboxamide], in test [1], the IC50 was at most 10 nM. Besides, the results for the EC50 in test [3] and in test [2] were 100 to 500 nM and above 2500 nM, respectively.
